Experimental data published in US20050070601A1, “Psychostimulant Effects of Forskolin Including Anorexia” (CREATIVE COMPOUNDS, LLC, priority 2003, published 2005).
Several values for one entry are separate records, joined by “and”; a condition that tells them apart may be missing. Equal values may be shown once.

Experiments:
[1] = test system: individuals; assay: Psychostimulant effect: self-rated wakefulness/alertness before and one hour after administration (Example 1); type: in vivo, human; details: scale of 1 to 10 (10 greatest), one value per subject, average of three days, 100 mg twice daily as 40% Coleus forskohli extract capsules
Description: The forskolin was administered one hour after waking and one hour before bedtime. Subjects were asked to evaluate their level of wakefulness/alertness on a scale of 1 to 10 (10 being the greatest) both before administration and one hour after administration. […] All of the subjects perceived an increase in their level of wakefulness/alertness both in the morning and in the evening. These times were chosen due to the fact that most people have a greater degree of sleepiness or a greater degree of having problems with mental alertness during these times of the day.

[2] = test system: overweight individuals who claimed to have a problem controlling their appetite; assay: Appetite suppression: self-rated level of appetite before and after administration (Example 2); type: in vivo, human
Description: The forskolin was administered three times per day for five days. Subjects were asked to evaluate the level of their appetite from a scale of 1 to 10 (10 being the greatest). […] Some of the subjects even reported that they felt no desire to eat within 30 minutes after administration even though before administration they felt “extremely hungry”.

[3] = test system: Test subjects; assay: Experimenting with higher daily dosages: psychostimulant effect in test subjects; type: in vivo, human
Description: While experimenting with forskolin in much higher daily dosages, the inventors discovered new and as yet undiscovered uses for forskolin and Coleus forskohli and its extracts. The novel effects became quite evident and noticeable upon administering 150 mg per day of forskolin in the form of a 20% Coleus forskohli extract. […] The dosages of forskolin that precipitate the best psychostimlant properties seem to be above 100 mg but can be below this level for some highly sensitive people.

[4] = test system: humans; assay: Test of forskolin as anorectic agent in humans; design: species or system human; details: in vivo
Description: Because nearly all psychostimulants have been or are being used as extremely effective appetite suppressants, the inventors decided to test the hypothesis that forskolin would be an effective anorectic agent. […] This anorectic effect is dose dependent and works increasingly until the dosage of 500 mg per day of forskolin. Most tested individuals noticed the appetite suppression effects above 75 mg per day of forskolin; however, a few individuals noticed slight effects down to 30 mg per day.

[5] = scale of 1 to 10 (10 greatest), after dose, one value per subject, average of five days, 100 mg sixty minutes before meals, three times per day, 40% extract capsules
[6] = scale of 1 to 10 (10 greatest), before dose, one value per subject, average of five days, 100 mg sixty minutes before meals, three times per day, 40% extract capsules

## C=C[C@@]1(C)CC(=O)[C@]2(O)[C@@]3(C)[C@@H](O)CCC(C)(C)[C@@H]3[C@H](O)[C@H](OC(C)=O)[C@@]2(C)O1 [forskolin, Forskolin]
[1]; baseline before dose
  MBA: level of wakefulness/alertness, morning, before administration: 3 (2×) and 2 and 7 (2×)
[1]; before evening dose
  EBA: level of wakefulness/alertness, evening, before administration: 6 (2×) and 5 and 7 (2×)
[1]; one hour after administration
  EAA: level of wakefulness/alertness, evening, after administration: 7 and 9 and 5 and 10 and 8
  MAA: level of wakefulness/alertness, morning, after administration: 5 (2×) and 7 and 8 and 10
[2]; [5]
  AB: level of appetite, Breakfast, After Administration: 5 and 3 and 4
  AD: level of appetite, Dinner, After Administration: 8 and 3 and 5
  AL: level of appetite, Lunch, After Administration: 7 and 3 and 5
[2]; [6]
  BB: level of appetite, Breakfast, Before Administration: 6 and 8 and 4
  BD: level of appetite, Dinner, Before Administration: 9 and 10 and 7
  BL: level of appetite, Lunch, Before Administration: 9 and 10 and 8
[2]; some of the subjects, "extremely hungry" before administration
  time after administration within which some subjects felt no desire to eat: ≤ 30 min
[3]; can be below this level for some highly sensitive people
  dosages that precipitate the best psychostimulant properties: above 100 mg
[3]; human, in vivo
  untoward central nervous system stimulating effects (jitteriness, nervousness, increased blood pressure, heart rate or respiratory rate): did not cause any untoward central nervous system stimulating effects
[4]
  dosage above which most tested individuals noticed the appetite suppression effects: above 75 mg per day
  dosage down to which a few individuals noticed slight appetite suppression effects: ≥ 30 mg per day
  dosage until which the dose dependent anorectic effect works increasingly: ≤ 500 mg per day
